Our source for the pKa values is patent US20190085207A1, “POLISHING COMPOSITION FOR OBJECT TO BE POLISHED HAVING METAL-CONTAINING LAYER” (FUJIMI INCORPORATED, priority 2016, published 2019).

This data set in a line: Acid dissociation constant (pKa) of the acid. The text has this: In this specification, the acid dissociation constant (pKa) of the acid is an index of acidity, and a common logarithm is employed as a reciprocal of the dissociation constant (Ka) of acid. That is, the acid dissociation constant (pKa) of the acid is obtained by measuring the dissociation constant Ka=[H3O^+] [B^−]/[BH] under a dilute aqueous solution condition and using a formula: pKa=−log Ka Incidentally, in the above formula, BH represents an organic acid and B^− represents a conjugate base of an organic acid. The measurement method of pKa is as follows: a hydrogen ion concentration is measured using a pH meter and pKa can be calculated from the concentration of the substance and the hydrogen ion concentration. Incidentally, in the case of polybasic acid, the pKa is a value calculated for the first Ka (pKa1).

Regarding `CC(C)(O)C(=O)O` [2-Hydroxyisobutyric acid], the pKa (dilute aqueous solution) was determined as 4.37.

Take `O=C(O)C(O)CO` (centres unmarked) [Glyceric acid]: the pKa (dilute aqueous solution) amounted to 3.4.

In turn, `CC(C)CC(O)C(=O)O` (centres unmarked) [Leucine acid] yielded a pKa of 3.9.

In turn, `O=C(O)CC(O)C(=O)O` (centres unmarked) [Malic acid] returned a pKa of 3.4.

`CCCCC(=O)O` [Valeric acid]: the pKa (dilute aqueous solution) worked out at 4.6.
